Data reported in the NIST ThermoML archive (doi:10.1021/je1006482).

Experiments:
[1] = 101.33 kPa, Liquid
[2] = excess molar enthalpy (molar enthalpy of mixing); xn = mol fraction of the nth substance listed; settings: 101.3 kPa, Liquid, Flow calorimetry

COC(=O)CC(C)=O [methyl 3-oxobutanoate]
[1]
Settings | mass density [kg/m3]
288.2 K | 1081.93
298.2 K | 1071.18
313.2 K | 1055.01
328.2 K | 1038.78
338.2 K | 1027.89
348.2 K | 1016.95

COC(=O)CC(C)=O [methyl 3-oxobutanoate] + CC(C)O
excess molar enthalpy [kcal/mol], [2]
Settings | 288.2 K | 298.2 K | 313.2 K | 328.2 K
x1 = 0.1002 | 0.228 | 0.251 | 0.272 | 0.285
x1 = 0.2005 | 0.349 | 0.394 | 0.443 | 0.469
x1 = 0.2998 | 0.422 | 0.48 | 0.542 | 0.576
x1 = 0.35 | 0.448 | 0.504 | 0.569 | 0.605
x1 = 0.4004 | 0.461 | 0.525 | 0.59 | 0.633
x1 = 0.4493 | 0.473 | 0.536 | 0.601 | 0.639
x1 = 0.4998 | 0.476 | 0.536 | 0.598 | 0.634
x1 = 0.5504 | 0.473 | 0.531 | 0.589 | 0.62
x1 = 0.6008 | 0.462 | 0.518 | 0.565 | 0.593
x1 = 0.6492 | 0.444 | 0.494 | 0.536 | 0.558
x1 = 0.6991 | 0.418 | 0.461 | 0.493 | 0.51
x1 = 0.7997 | 0.336 | 0.361 | 0.374 | 0.382
x1 = 0.9002 | 0.194 | 0.206 | 0.205 | 0.211

COC(=O)CC(C)=O [methyl 3-oxobutanoate] + CCCO
excess molar enthalpy [kcal/mol], [2]
Settings | 288.2 K | 298.2 K | 313.2 K | 328.2 K
x1 = 0.0994 | 0.197 | 0.219 | 0.244 | 0.262
x1 = 0.1995 | 0.311 | 0.351 | 0.4 | 0.433
x1 = 0.2993 | 0.38 | 0.43 | 0.495 | 0.538
x1 = 0.3492 | 0.403 | 0.458 | 0.527 | 0.568
x1 = 0.3995 | 0.42 | 0.477 | 0.549 | 0.59
x1 = 0.45 | 0.432 | 0.486 | 0.56 | 0.599
x1 = 0.5008 | 0.435 | 0.491 | 0.561 | 0.601
x1 = 0.5498 | 0.434 | 0.487 | 0.553 | 0.587
x1 = 0.6007 | 0.425 | 0.476 | 0.534 | 0.564
x1 = 0.6495 | 0.41 | 0.457 | 0.507 | 0.533
x1 = 0.7 | 0.387 | 0.427 | 0.471 | 0.488
x1 = 0.8001 | 0.314 | 0.337 | 0.361 | 0.37
x1 = 0.9003 | 0.186 | 0.192 | 0.203 | 0.206

COC(=O)CC(C)=O [methyl 3-oxobutanoate] + CCO
excess molar enthalpy [kcal/mol], [2]
Settings | 288.2 K | 298.2 K | 313.2 K | 328.2 K
x1 = 0.1003 | 0.175 | 0.188 | 0.21 | 0.228
x1 = 0.2002 | 0.278 | 0.303 | 0.343 | 0.37
x1 = 0.2995 | 0.34 | 0.377 | 0.424 | 0.451
x1 = 0.3494 | 0.361 | 0.399 | 0.453 | 0.479
x1 = 0.3995 | 0.375 | 0.416 | 0.47 | 0.501
x1 = 0.4495 | 0.384 | 0.426 | 0.48 | 0.509
x1 = 0.5008 | 0.387 | 0.428 | 0.481 | 0.51
x1 = 0.5497 | 0.384 | 0.424 | 0.476 | 0.502
x1 = 0.5995 | 0.375 | 0.414 | 0.461 | 0.483
x1 = 0.65 | 0.36 | 0.395 | 0.44 | 0.457
x1 = 0.7011 | 0.337 | 0.366 | 0.405 | 0.419
x1 = 0.7996 | 0.269 | 0.288 | 0.313 | 0.319
x1 = 0.9006 | 0.155 | 0.164 | 0.173 | 0.174

COC(=O)CC(C)=O [methyl 3-oxobutanoate] + CO
excess molar enthalpy [kcal/mol], [2]
Settings | 288.2 K | 298.2 K | 313.2 K | 328.2 K
x1 = 0.1004 | 0.127 | 0.136 | 0.148 | 0.159
x1 = 0.2001 | 0.209 | 0.222 | 0.246 | 0.261
x1 = 0.3 | 0.262 | 0.279 | 0.306 | 0.329
x1 = 0.3506 | 0.28 | 0.298 | 0.328 | 0.35
x1 = 0.4003 | 0.293 | 0.309 | 0.34 | 0.364
x1 = 0.4497 | 0.298 | 0.315 | 0.347 | 0.37
x1 = 0.5001 | 0.301 | 0.319 | 0.348 | 0.37
x1 = 0.551 | 0.298 | 0.314 | 0.345 | 0.366
x1 = 0.5993 | 0.289 | 0.307 | 0.335 | 0.353
x1 = 0.6492 | 0.277 | 0.29 | 0.316 | 0.332
x1 = 0.7004 | 0.257 | 0.272 | 0.292 | 0.306
x1 = 0.7993 | 0.202 | 0.21 | 0.222 | 0.233
x1 = 0.8988 | 0.118 | 0.117 | 0.125 | 0.129
